Experimental findings from patent US20140086938A1, “METHODS OF INHIBITING TUMOR GROWTH USING TTK ANTAGONISTS” (University Health Network, priority 2007, published 2014) are described below.

Test in all cases: SP600125 SRB growth inhibition
Common to all, as to format: cell-based

One test concerns 184A. The following applies: Homo sapiens, 120 h, SRB assay 5 days after addition. The procedure:
(§1) Compound SP600125 was purchased from Biomol International (PA, USA). 10 mM stock was prepared in 100% DMSO. Cells were seeded at various numbers, ranging from 1500 to 4000 per 80 μl in each well according to cell growth rate, into 96 well plates, 24 hours before compound overlay. The 10 mM SP600125 compounds stock in 100% DMSO was diluted with Opti-MEM I Reduced-Serum Medium (Invitrogen, Burlington, ON, Canada) to concentrations range from 50 nM to 250 μM. 20 μl from each concentration was overlay to cells to make the final concentrations range from 10 nM to 50 μM. The cells were cultured for 5 days before Sulforhodamine B assay. SRB assay is performed to assess cell survival. SRB is a water-soluble dye that binds to the basic amino acids of the cellular proteins. Thus, colorimetric measurement of the bound dye provides an estimate of the total protein mass that is related to the cell number. the cells are fixed in situ by gently aspirating off the culture media and adding 50 μl ice cold 10% Tri-chloroacetic Acid (TCA) per well and incubate at 4° C. for 30-60 min. The plates are washed with tap water five times and allowed to air dry for 5 min. Add 50 μl 0.4% (w/v) Sulforhodamine B solution in 1% (v/v) acetic acid per well and incubate for 30 min at RT for staining. Following staining, plates are washed four times with 1% acetic acid to remove any unbound dye and then allowed to air dry for 5 min. Stain is solubilized with 100 ul of 10 mM Tris pH 10.5 per well. Absorbance is read at 570 nm. The cell survival percentage in each compound concentration was calculated over the cell DMSO control, which was growing in the presence of 0.1% DMSO (0.5% in the case of 50 μM compounds). The GI50 were calculated using GraphPad PRISM software.
(§2) Cell viability was assessed using the SRB assay described herein, which was performed 5 days after the addition of SP600125 to the culture media. Prism software was used to calculate GI50 (concentration of the compound required to achieve 50% growth inhibition) (Table 3).

A further test concerns BT474. The note with it: Homo sapiens, BT-474, 120 h, SRB assay 5 days after addition. The procedure: as §1, §2
For a further test, the system named is HCC1419. The note with it: Homo sapiens, 120 h, SRB assay 5 days after addition. The procedure:
as §1, §2

The next test relates to Hs578T. The note with it: Homo sapiens, Hs-578T, 120 h, SRB assay 5 days after addition. As to the method:
as §1, §2

The test system of the next test is MCF-7. The note with it: Homo sapiens, MCF7, 120 h, SRB assay 5 days after addition. As to the method:
as §1, §2

In a further test the test system is MDA-MB-231. The following applies: Homo sapiens, 120 h, SRB assay 5 days after addition. As to the method: as §1, §2
The next test concerns MDA-MB-330. The note with it: Homo sapiens, 120 h, SRB assay 5 days after addition. The procedure:
as §1, §2

The next test has as its system MDA-MB-435. The following applies: Homo sapiens, 120 h, SRB assay 5 days after addition. The procedure:
as §1, §2

The subject of another test is MDA-MB-453. The note with it: Homo sapiens, 120 h, SRB assay 5 days after addition. As to the method:
as §1, §2

The subject of another test is MDA-MB-468. The note with it: Homo sapiens, 120 h, SRB assay 5 days after addition. The procedure: as §1, §2
For another test, the system named is SKBr-3. The note with it: Homo sapiens, SK-BR-3, 120 h, SRB assay 5 days after addition. The procedure: as §1, §2
Another test deals with T47D. The note with it: Homo sapiens, 120 h, SRB assay 5 days after addition. The procedure: as §1, §2

For `Oc1c2ccccc2c2c3c(cccc13)N=N2` [SP600125, anthra(1,9-cd)pyrazol-6(2H)-one 1,9-pyrazoloanthrone], the GI50 in the test on 184A came to 1590 nM; in the test with BT474, 8580 nM; with HCC1419, 10000 nM; with Hs578T, 1840 nM; in the test with MCF-7 it was 672 nM; in the test on MDA-MB-231 it was 894 nM. Further, the GI50 with MDA-MB-330 was found to be 7020 nM; with MDA-MB-435, 822 nM; in the test with MDA-MB-453 it was 2300 nM; in the test with MDA-MB-468, 483 nM; in the test on SKBr-3 it was 812 nM; in the test on T47D, 2520 nM.
